Data from publication PMC12687421, “Characterisation of an allosteric site in PLCγ enzymes and implications for development of their specific inhibitors” (Biochemical Journal, 2025).

Target: T1, PLCγ1^wt (Homo sapiens, UniProt P19174, I813T)
T1 construct: specific activities of PLCγ1^wt and PLCγ2^wt full-length proteins; made in house; host or cells: Escherichia coli T7 Express lysY/Iq
T1 sequence (P19174 1-1291 isoform P19174-2 I813T): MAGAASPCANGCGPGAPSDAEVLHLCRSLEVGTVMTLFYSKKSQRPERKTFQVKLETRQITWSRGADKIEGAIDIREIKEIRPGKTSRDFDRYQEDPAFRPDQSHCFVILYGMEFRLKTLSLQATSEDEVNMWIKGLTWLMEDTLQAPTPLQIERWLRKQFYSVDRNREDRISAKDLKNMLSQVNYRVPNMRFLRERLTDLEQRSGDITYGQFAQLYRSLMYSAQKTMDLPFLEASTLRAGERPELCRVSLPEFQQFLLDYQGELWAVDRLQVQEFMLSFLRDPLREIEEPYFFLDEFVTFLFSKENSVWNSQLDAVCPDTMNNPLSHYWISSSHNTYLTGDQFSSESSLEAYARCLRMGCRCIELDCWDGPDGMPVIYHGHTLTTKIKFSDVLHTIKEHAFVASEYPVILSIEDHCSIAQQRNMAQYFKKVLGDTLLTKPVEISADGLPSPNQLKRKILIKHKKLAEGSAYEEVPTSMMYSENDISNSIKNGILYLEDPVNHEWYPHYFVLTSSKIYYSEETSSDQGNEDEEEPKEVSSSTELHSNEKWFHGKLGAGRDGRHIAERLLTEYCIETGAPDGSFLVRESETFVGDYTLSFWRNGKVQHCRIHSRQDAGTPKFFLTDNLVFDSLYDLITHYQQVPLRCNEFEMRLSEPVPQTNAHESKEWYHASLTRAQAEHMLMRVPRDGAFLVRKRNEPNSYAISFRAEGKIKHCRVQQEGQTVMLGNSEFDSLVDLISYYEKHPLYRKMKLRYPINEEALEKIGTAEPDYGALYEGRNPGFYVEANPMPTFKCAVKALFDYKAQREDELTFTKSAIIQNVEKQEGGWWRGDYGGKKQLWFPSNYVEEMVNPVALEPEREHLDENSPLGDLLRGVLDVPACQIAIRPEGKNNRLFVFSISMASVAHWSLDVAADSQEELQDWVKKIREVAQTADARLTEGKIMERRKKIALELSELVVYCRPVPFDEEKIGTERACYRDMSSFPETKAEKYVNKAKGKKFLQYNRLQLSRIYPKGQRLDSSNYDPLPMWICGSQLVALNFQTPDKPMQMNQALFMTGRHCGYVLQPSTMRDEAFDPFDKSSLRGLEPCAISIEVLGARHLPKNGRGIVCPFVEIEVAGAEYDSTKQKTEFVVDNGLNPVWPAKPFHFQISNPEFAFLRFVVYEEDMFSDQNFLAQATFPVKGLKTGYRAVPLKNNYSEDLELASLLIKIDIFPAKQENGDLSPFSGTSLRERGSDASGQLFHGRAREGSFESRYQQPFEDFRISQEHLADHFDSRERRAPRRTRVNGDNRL
Assay: Assay 1 (A1) with 10% nickel lipids (His-tagged PLCγ1 immobilised on liposomes)
Assay type: biochemical
Conditions: 10% Ni-lipids vs control
Excerpt: The standard liposome components were designed to mimic a typical plasma membrane composition: 49% PE (brain or synthetic), 1% phosphatidylinositol 4,5-bisphosphate (PIP2), 20% brain phosphatidylserine (PS), 15% phosphatidylcholine (PC), 10% cholesterol and 5% sphingomyelin. The nickel liposome mix consisted of 39% PE (brain or synthetic), 1% PIP2, 20% brain PS, 15% PC, 10% cholesterol, 10% nickel lipid and 5% sphingomyelin.
A CLARIOstar plate reader (BMG Labtech) was used to measure the production of the fluorescent product. The excitation and emission wavelengths were 485–15 and 520–20, respectively. Each experiment was performed in at least triplicate; in many cases, nine-fold replicates were generated. The enzyme progress curves were plotted for each concentration of nucleotide using Graphpad Prism software. The initial linear rate of product generation was calculated and converted to a % inhibition when compared with the rate of PLC activity in the absence of nucleotide. These % inhibition values were plotted against the logarithm of the nucleotide concentration in Graphpad Prism and the data fitted with the function (Inhibitor) vs. response–variable slope (four parameters). The resultant fit yielded the IC50 values for the nucleotide inhibition.
The standard XY-69 assay format outlined above was repeated with the addition of 10% nickel lipids in the liposome mixture. […]

Nc1ncnc2c1ncn2[C@@H]1O[C@H](COP(=O)(O)OP(=O)(O)OP(=O)(O)O)[C@@H](O)[C@H]1O [ATP]
effect of immobilisation to liposomes on inhibition of PLC activity: prevented or, at higher concentrations, reduced inhibition
